Where a SMILES comes first, the peptide text is derived from it.
Assay: Heating experiments: succinimide formation (dehydration) from Asp isomer peptides
Type: physicochemical
Conditions: chemical stability, PBS pH 7.4, 70°C, RP-HPLC peak areas, 215 nm
Protocol: To determine the rate constant for the conversion the Asp isomers to succinimides in the T6 peptide, the T6-Lα, T6-Lβ, T6-Dα and T6-Dβ peptides were dissolved in PBS (pH7.4) and were incubated at 50, 60, 70, 80, and 90°C for 0.4–31 days.
After the incubation of the 4 isomeric peptides, these peptides were subjected to HPLC. Since the four isomeric T6 peptides are clearly separated by RP-HPLC chromatography, we can measure the relative amounts of the peptides produced by the incubation from the peak areas of the 4 isomeric peptides in the chromatogram. The results are as follows: [drawing 11] (4 - 1) [drawing 12] (4 - 2) [drawing 13] (4 - 3) [drawing 14] (4 - 4) where [L-α-Asp]%, [L-β-Asp]%, [D-α-Asp]%, and [D-β-Asp]% are relative amounts (%) of L-α-Asp, L-β-Asp, D-α-Asp and D-β-Asp, and [L-α-Asp], [L-β-Asp], [D-α-Asp] and [D-β-Asp] represent the concentration of L-α-Asp, L-β-Asp, D-α-Asp and D-β-Asp respectively, which are calculated from the peak area in the RP-HPLC chromatogram. We plotted the relative amounts against incubation time. Subsequently, we drew fitted curves for this plot as follows:f1(t) for L-α-Asp, f2(t) for L-β-Asp, f3(t) for D-α-Asp, f4(t) for D-β-Asp.
The rate constants of the conversion of the peptide isomers can be expressed as follows: [drawing 15] (5 - 1) [drawing 16] (5 - 2) [drawing 17] (5 - 3) [drawing 18] (5 - 4) where [L-succinimide]% and [D-succinimide]% represent the relative amounts of L-succinimide and D-succinimide as a percentage, t is time (day), k1 is the rate constant for the conversion of L-α-Asp to L-succinimide (day^−1), k2 is the rate constant for the conversionof L-succinimide to L-α-Asp (day^−1), k3 is the rate constant for the conversion of L-β-Asp to L-succinimide (day^−1), k4 is the rate constant for the conversion of L-succinimide to L-β-Asp (day^−1), k5 is the rate constant for the conversion of D-α-Asp to D-succinimide (day^−1), k6 is the rate constant for the conversion of D-succinimide to D-α-Asp (day^−1), k7 is the rate constant for the conversion of D-β-Asp to D-succinimide (day^−1), k8 is the rate constant for the conversion of D-succinimide to D-β-Asp (day^−1), and f1’(t), f2’(t), f3’(t) and f4’(t) are derivatives of f1(t), f2(t), f3(t) and f4(t). At t = 0 day, [L-α-Asp]% and [L-succinimide]% are 100% and 0% respectively, therefore, Eq. (5-1) can be expressed as: […]
We determined k1, k3, k5 and k7 at five temperatures (50, 60, 70, 80 and 90°C) by using Eq. (6-1), (6-2), (6-3), (6-4). The Arrhenius equation shown below gives the activation energy of the degradation reaction. [drawing 23] […] From Eq. (7), we calculated k1, k3, k5 and k7 at 37°C using k1, k3, k5 and k7 from five temperatures (50, 60, 70, 80 and 90°C).

## CC[C@H](C)[C@H](NC(=O)CNC(=O)[C@H](CO)NC(=O)[C@@H](CC(=O)O)NC(=O)[C@H](CC(C)C)NC(=O)[C@@H](NC(=O)[C@@H](N)[C@@H](C)O)C(C)C)C(=O)N[C@@H](CO)C(=O)N[C@@H](CCC(=O)O)C(=O)N[C@H](C(=O)N[C@@H](CCCNC(=N)N)C(=O)O)C(C)C [T6-Dα] (HELM PEPTIDE1{T.V.L.[dD].S.G.I.S.E.V.R}$$$$V2.0)
  amount of peptide remaining after 10 days of incubation at 70°C: 40%

## CC[C@H](C)[C@H](NC(=O)CNC(=O)[C@H](CO)NC(=O)C[C@@H](NC(=O)[C@H](CC(C)C)NC(=O)[C@@H](NC(=O)[C@@H](N)[C@@H](C)O)C(C)C)C(=O)O)C(=O)N[C@@H](CO)C(=O)N[C@@H](CCC(=O)O)C(=O)N[C@H](C(=O)N[C@@H](CCCNC(=N)N)C(=O)O)C(C)C [T6-Dβ] (HELM PEPTIDE1{T.V.L.[O=C(O)[C@@H](CC(=O)[*:2])N[*:1]].S.G.I.S.E.V.R}$$$$V2.0)
  amount of peptide remaining after 10 days of incubation at 70°C: more than 80%

## CC[C@H](C)[C@H](NC(=O)CNC(=O)[C@H](CO)NC(=O)[C@H](CC(=O)O)NC(=O)[C@H](CC(C)C)NC(=O)[C@@H](NC(=O)[C@@H](N)[C@@H](C)O)C(C)C)C(=O)N[C@@H](CO)C(=O)N[C@@H](CCC(=O)O)C(=O)N[C@H](C(=O)N[C@@H](CCCNC(=N)N)C(=O)O)C(C)C [T6-Lα] (H-TVLDSGISEVR-OH)
  amount of peptide remaining after 10 days of incubation at 70°C: 30%

## CC[C@H](C)[C@H](NC(=O)CNC(=O)[C@H](CO)NC(=O)C[C@H](NC(=O)[C@H](CC(C)C)NC(=O)[C@@H](NC(=O)[C@@H](N)[C@@H](C)O)C(C)C)C(=O)O)C(=O)N[C@@H](CO)C(=O)N[C@@H](CCC(=O)O)C(=O)N[C@H](C(=O)N[C@@H](CCCNC(=N)N)C(=O)O)C(C)C [T6-Lβ] (HELM PEPTIDE1{T.V.L.[O=C(O)[C@H](CC(=O)[*:2])N[*:1]].S.G.I.S.E.V.R}$$$$V2.0)
  amount of peptide remaining after 10 days of incubation at 70°C: more than 80%
